From ChEMBL document CHEMBL2401646 (Bioorg Med Chem Lett, 2013)
One block for each compound: values may come before it. Calls of active or inactive are those of the source. The calls are words filed in the database; no cut-off is given here.

Experiments:
MKN-45 [1] = experiment: Antiproliferative activity against human MKN45 cells after 3 days by CellTiter-Glo assay; assay type: functional, cell-based; details: MKN-45, 72 h
Homo sapiens [2] = species on record: Homo sapiens; experiment: Ratio of IC50 for cMET Y1230C mutant (unknown origin) to IC50 for wild type cMET (unknown origin)
[3] = molecular target: Hepatocyte growth factor receptor (Homo sapiens, UniProt P08581); details: 1 uM
Description: Inhibition of cMET (unknown origin) autophosphorylation at 1 uM

KARPAS-299 [4] = experiment: Antitumor activity against human KARPAS299 xenograft model assessed as tumor growth inhibition up to 200 mg/kg qd; assay type: functional, organism-based; design: dose 200 mg/kg
[5] = molecular target: Tyrosine-protein kinase ABL2 (Homo sapiens) (UniProt P42684); details: 1 uM
Description: Inhibition of ARG (unknown origin) autophosphorylation at 1 uM

Mus musculus [6] = experiment: Inhibition of MET autophosphorylation at Y1349 in human MKN45 cells xenografted in mouse at 100 mg/kg, po up to 8 hrs; assay type: functional, organism-based; design: dose 100 mg/kg; details: MKN-45
Homo sapiens [7] = species on record: Homo sapiens; details: 1 uM
Description: Inhibition of aurora kinase (unknown origin) autophosphorylation at 1 uM

[8] = molecular target: Tyrosine-protein kinase ABL1 (Homo sapiens) (UniProt P00519); details: 1 uM
Description: Inhibition of Abl (unknown origin) autophosphorylation at 1 uM

Cytochrome P450 3A4 = Cytochrome P450 3A4 (Homo sapiens, UniProt P08684); experiment: Inhibition of CP3A4 (unknown origin)
[9] = Half life in CD1 mouse at 2 mg/kg, iv; assay type: ADME, organism-based; design: dose 2 mg/kg, route intravenous; details: in vivo
[10] = Volume of distribution at steady state in CD1 mouse at 2 mg/kg, iv; assay type: ADME, organism-based; design: dose 2 mg/kg, route intravenous; details: in vivo, read-out: Vdss
[11] = Clearance in CD1 mouse at 2 mg/kg, iv; assay type: ADME, organism-based; design: dose 2 mg/kg, route intravenous; details: in vivo
Homo sapiens [12] = species on record: Homo sapiens; experiment: Ratio of IC50 for cMET Y1230H mutant (unknown origin) to IC50 for wild type cMET (unknown origin)
KARPAS-299 [13] = experiment: Antitumor activity against human KARPAS299 xenograft model assessed as tumor growth inhibition at 50 mg/kg qd; assay type: functional; details: read-out: TGI
[14] = Permeability of the compound at pH 7.4 by PAMPA; assay type: ADME; details: read-out: permeability
MKN-45 [15] = experiment: Antitumor activity against human MKN45 cells xenografted in nu/nu CD1 mouse model assessed as tumor growth inhibition at 25 mg/kg, po qd for 14 days; assay type: functional; details: MKN-45, 336 h, read-out: TGI
MKN-45 [16] = experiment: Antitumor activity against human MKN45 cells xenografted in nu/nu CD1 mouse model assessed as maximum tumor regression at 100 mg/kg, po qd for 14 days; assay type: functional
[17] = Oral bioavailability in CD1 mouse at 20 mg/kg; assay type: ADME, organism-based; details: in vivo
MKN-45 [18] = experiment: Antitumor activity against human MKN45 cells xenografted in nu/nu CD1 mouse model assessed as maximum tumor regression at 50 mg/kg, po qd for 14 days; assay type: functional
Mus musculus [19] = experiment: Toxicity in human MKN45 cells xenografted nu/nu CD1 mouse model assessed as body weigh loss at 200 mg/kg, po qd for 14 days; assay type: organism-based, MKN-45; design: dose 200 mg/kg, route oral; details: in vivo, 336 h
[20] = Cmax in CD1 mouse at 20 mg/kg, po; assay type: ADME, organism-based; design: dose 20 mg/kg, route oral; details: in vivo
MKN-45 [21] = experiment: Antitumor activity against human MKN45 cells xenografted in nu/nu CD1 mouse model assessed as maximum tumor regression at 200 mg/kg, po qd for 14 days; assay type: functional
[22] = AUC (0 to last) in CD1 mouse at 20 mg/kg, po; assay type: ADME, organism-based; design: dose 20 mg/kg, route oral, time 0 - last; details: plasma
Mus musculus [23] = experiment: Toxicity in human MKN45 cells xenografted nu/nu CD1 mouse model assessed as body weigh loss at 25 mg/kg, po qd for 14 days; assay type: organism-based, MKN-45; design: dose 25 mg/kg, route oral; details: in vivo, 336 h
Mus musculus [24] = experiment: Toxicity in human MKN45 cells xenografted nu/nu CD1 mouse model assessed as body weigh loss at 50 mg/kg, po qd for 14 days; assay type: organism-based, MKN-45; design: dose 50 mg/kg, route oral; details: in vivo, 336 h
MKN-45 [25] = experiment: Antitumor activity against human MKN45 cells xenografted in nu/nu CD1 mouse model assessed as tumor growth inhibition at 200 mg/kg, po qd for 14 days; assay type: functional; details: MKN-45, 336 h, read-out: TGI
Mus musculus [26] = experiment: Toxicity in human MKN45 cells xenografted nu/nu CD1 mouse model assessed as body weigh loss at 100 mg/kg, po qd for 14 days; assay type: organism-based, MKN-45; design: dose 100 mg/kg, route oral; details: in vivo, 336 h
MKN-45 [27] = experiment: Antitumor activity against human MKN45 cells xenografted in nu/nu CD1 mouse model assessed as tumor growth inhibition at 100 mg/kg, po qd for 14 days; assay type: functional; details: MKN-45, 336 h, read-out: TGI
MKN-45 [28] = experiment: Antitumor activity against human MKN45 cells xenografted in nu/nu CD1 mouse model assessed as maximum tumor regression at 25 mg/kg, po qd for 14 days; assay type: functional
MKN-45 [29] = experiment: Antitumor activity against human MKN45 cells xenografted in nu/nu CD1 mouse model assessed as tumor growth inhibition at 50 mg/kg, po qd for 14 days; assay type: functional; details: MKN-45, 336 h, read-out: TGI

Structure (SMILES): C[C@@H](Oc1c(N)ncc2c(-c3cn[nH]c3)coc12)c1c(Cl)ccc(F)c1Cl
IC50 (MKN-45 [1]): 3300 nM

Structure (SMILES): C[C@@H](Oc1c(N)ncc2c(C3=CCN(C(N)=O)CC3)coc12)c1c(Cl)ccc(F)c1Cl
Ratio IC50 (Homo sapiens [2]): 3 | inhibition [3]: > 50% | TGI (KARPAS-299 [4]): inactive | inhibition [5]: > 50% | inhibition (Mus musculus [6]): Active | inhibition (Homo sapiens [7]): > 50% | inhibition [8]: > 50%

Structure (SMILES): C[C@@H](Oc1c(N)ncc2c(-c3ccccc3)coc12)c1c(Cl)ccc(F)c1Cl
IC50 (MKN-45 [1]): 11000 nM

Structure (SMILES): C[C@@H](Oc1c(N)ncc2c(-c3ccccn3)coc12)c1c(Cl)ccc(F)c1Cl
IC50 (MKN-45 [1]): 4600 nM

Structure (SMILES): C[C@@H](Oc1cc(-c2cnn(C3CCNCC3)c2)cnc1N)c1c(Cl)ccc(F)c1Cl [CRIZOTINIB]
Ratio IC50 (Homo sapiens [2]): > 600 | Ratio IC50 (Homo sapiens [12]): 8 | inhibition in vivo at 50 mg/kg (KARPAS-299 [13]): 96%

Structure (SMILES): C[C@@H](Oc1c(N)ncc2c(-c3cccnc3)coc12)c1c(Cl)ccc(F)c1Cl
IC50 (MKN-45 [1]): 2700 nM

Structure (SMILES): C[C@@H](Oc1c(N)ncc2c(C3CCNCC3)coc12)c1c(Cl)ccc(F)c1Cl
IC50 (MKN-45 [1]): 3100 nM

Structure (SMILES): CNC(=O)c1coc2c(O[C@H](C)c3c(Cl)ccc(F)c3Cl)c(N)ncc12
IC50 (MKN-45 [1]): 3500 nM

Structure (SMILES): C[C@@H](Oc1c(N)ncc2c(C3=CCNCC3)coc12)c1c(Cl)ccc(F)c1Cl
IC50 (MKN-45 [1]): 450 nM

Structure (SMILES): CC(=O)N1CC=C(c2coc3c(O[C@H](C)c4c(Cl)ccc(F)c4Cl)c(N)ncc23)CC1
IC50 (MKN-45 [1]): 330 nM | Papp [14]: 199 ×10⁻⁶ cm/s

Structure (SMILES): CS(=O)(=O)O.C[C@@H](Oc1c(N)ncc2c(C3=CCN(C(N)=O)CC3)coc12)c1c(Cl)ccc(F)c1Cl
inhibition in vivo at 25 mg/kg (MKN-45 [15]): 13% | Activity (MKN-45 [16]): 27% | bioavailability [17]: 83% | Activity (MKN-45 [18]): 0% | Activity (Mus musculus [19]): 3% | Cmax [20]: 4800 nM | Activity (MKN-45 [21]): 49% | AUC(0-t) [22]: 5420 ng·h/mL | Activity (Mus musculus [23]): 6% | Activity (Mus musculus [24]): 2% | inhibition in vivo at 200 mg/kg (MKN-45 [25]): 100% | Activity (Mus musculus [26]): 3% | inhibition in vivo at 100 mg/kg (MKN-45 [27]): 100% | Activity (MKN-45 [28]): 0% | inhibition in vivo at 50 mg/kg (MKN-45 [29]): 51%

Structure (SMILES): C[C@@H](Oc1c(N)ncc2c(C3=CCN(C(=O)N(C)C)CC3)coc12)c1c(Cl)ccc(F)c1Cl
IC50 (MKN-45 [1]): 510 nM

Structure (SMILES): C[C@@H](Oc1c(N)ncc2c(-c3ccncc3)coc12)c1c(Cl)ccc(F)c1Cl
IC50 (MKN-45 [1]): 900 nM

Structure (SMILES): OCCn1cc(-c2cnc3nnn(Cc4ccc5ncccc5c4)c3n2)cn1
Ratio IC50 (Homo sapiens [2]): > 600 | Ratio IC50 (Homo sapiens [12]): 8

Structure (SMILES): COC(=O)N1CC=C(c2coc3c(O[C@H](C)c4c(Cl)ccc(F)c4Cl)c(N)ncc23)CC1
IC50 (MKN-45 [1]): 850 nM

Structure (SMILES): CNC(=O)N1CC=C(c2coc3c(O[C@H](C)c4c(Cl)ccc(F)c4Cl)c(N)ncc23)CC1
IC50 (MKN-45 [1]): 190 nM

Other lines, results leading:

IC50 (MKN-45 [1]): 480 nM
Structure (SMILES): CC(Oc1c(N)ncc2c(-c3cnn(C4CCNCC4)c3)coc12)c1c(Cl)c(F)cc(F)c1Cl (racemic)

IC50 (MKN-45 [1]): 510 nM
Structure (SMILES): CC(Oc1c(N)ncc2c(-c3cnn(C4CCNCC4)c3)coc12)c1c(Br)ccc(F)c1Cl (racemic)

IC50 (Cytochrome P450 3A4): 1600 nM | IC50 (MKN-45 [1]): 360 nM
Structure (SMILES): C#CCC(Oc1c(N)ncc2c(-c3cnn(C4CCNCC4)c3)coc12)c1c(Cl)ccc(F)c1Cl (racemic)

half-life [9]: 36 min | Vd [10]: 12 L/kg | IC50 (MKN-45 [1]): 300 nM | clearance [11]: 227 mL/min/kg
Structure (SMILES): C[C@@H](Oc1c(N)ncc2c(-c3cnn(C4CCNCC4)c3)coc12)c1c(Cl)ccc(F)c1Cl

IC50 (MKN-45 [1]): 1600 nM
Structure (SMILES): COc1ccc(Cl)c([C@@H](C)Oc2c(N)ncc3c(-c4cnn(C5CCNCC5)c4)coc23)c1Cl

IC50 (MKN-45 [1]): 2000 nM
Structure (SMILES): CC(Oc1c(N)ncc2c(-c3cnn(C4CCNCC4)c3)coc12)c1c(Cl)cccc1Cl (racemic)

IC50 (MKN-45 [1]): 4500 nM
Structure (SMILES): C[C@H](Oc1c(N)ncc2c(-c3cnn(C4CCNCC4)c3)coc12)c1c(Cl)ccc(F)c1Cl

IC50 (MKN-45 [1]): 670 nM | Papp [14]: 318 ×10⁻⁶ cm/s
Structure (SMILES): CC(=O)N1CCC(n2cc(-c3coc4c(O[C@H](C)c5c(Cl)ccc(F)c5Cl)c(N)ncc34)cn2)CC1

IC50 (MKN-45 [1]): 5100 nM
Structure (SMILES): CC(Oc1c(N)ncc2c(-c3cnn(C4CCNCC4)c3)coc12)c1cccc(F)c1Cl (racemic)

IC50 (MKN-45 [1]): 6400 nM
Structure (SMILES): CC(Oc1c(N)ncc2c(-c3cnn(C4CCNCC4)c3)coc12)c1cc(F)ccc1Cl (racemic)

bioavailability [17]: 35% | Cmax [20]: 150 nM | AUC(0-t) [22]: 509 ng·h/mL
Structure (SMILES): C[C@@H](Oc1c(N)ncc2c(-c3cnn(C4CCNCC4)c3)coc12)c1c(Cl)ccc(F)c1Cl.Cl.Cl.Cl.Cl

IC50 (MKN-45 [1]): 3600 nM
Structure (SMILES): CCC(Oc1c(N)ncc2c(-c3cnn(C4CCNCC4)c3)coc12)c1c(Cl)ccc(F)c1Cl (racemic)

IC50 (Cytochrome P450 3A4): > 20000 nM | IC50 (MKN-45 [1]): 570 nM
Structure (SMILES): CC(Oc1c(N)ncc2c(-c3cnn(C4CCNCC4)c3)coc12)c1c(Cl)ccc(F)c1Cl (racemic)

IC50 (MKN-45 [1]): 1300 nM
Structure (SMILES): CC(Oc1c(N)ncc2c(-c3cnn(C4CCNCC4)c3)coc12)c1c(Cl)ccc(Cl)c1Cl (racemic)

IC50 (MKN-45 [1]): 2700 nM
Structure (SMILES): CCCC(Oc1c(N)ncc2c(-c3cnn(C4CCNCC4)c3)coc12)c1c(Cl)ccc(F)c1Cl (racemic)

IC50 (MKN-45 [1]): 3600 nM
Structure (SMILES): CC(Oc1c(N)ncc2c(-c3cnn(C4CCNCC4)c3)coc12)c1c(Cl)cc(Cl)cc1Cl (racemic)

IC50 (MKN-45 [1]): 8600 nM
Structure (SMILES): Nc1ncc2c(-c3cnn(C4CCNCC4)c3)coc2c1OCc1c(Cl)ccc(F)c1Cl
